Some results are limits rather than exact numbers.

Sequence of HPK1 (MAP4K1) (Q92918 whole entry, species assumed): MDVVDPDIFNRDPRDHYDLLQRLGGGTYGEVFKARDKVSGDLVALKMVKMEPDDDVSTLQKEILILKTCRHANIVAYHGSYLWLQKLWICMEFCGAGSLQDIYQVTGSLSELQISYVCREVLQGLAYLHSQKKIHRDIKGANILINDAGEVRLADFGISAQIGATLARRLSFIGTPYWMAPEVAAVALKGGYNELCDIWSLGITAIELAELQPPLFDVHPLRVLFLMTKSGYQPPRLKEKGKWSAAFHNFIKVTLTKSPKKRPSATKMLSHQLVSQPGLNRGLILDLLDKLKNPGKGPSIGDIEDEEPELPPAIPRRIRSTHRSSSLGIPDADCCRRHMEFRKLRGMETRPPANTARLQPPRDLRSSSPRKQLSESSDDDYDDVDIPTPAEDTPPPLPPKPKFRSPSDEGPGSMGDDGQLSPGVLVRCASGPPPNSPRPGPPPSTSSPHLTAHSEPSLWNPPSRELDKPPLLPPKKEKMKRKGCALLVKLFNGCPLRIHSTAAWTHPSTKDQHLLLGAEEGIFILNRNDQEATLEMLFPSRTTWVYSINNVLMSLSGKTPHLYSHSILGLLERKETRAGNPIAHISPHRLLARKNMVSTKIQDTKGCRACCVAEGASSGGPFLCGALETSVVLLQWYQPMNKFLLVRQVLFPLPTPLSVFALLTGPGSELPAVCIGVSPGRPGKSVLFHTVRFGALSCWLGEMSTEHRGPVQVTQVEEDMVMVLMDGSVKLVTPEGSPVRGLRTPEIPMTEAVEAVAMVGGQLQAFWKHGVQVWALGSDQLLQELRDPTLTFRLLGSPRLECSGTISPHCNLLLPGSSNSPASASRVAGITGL

This assay addresses HPK1 (MAP4K1) (Homo sapiens, UniProt Q92918). Briefly: HPK1 (MAP4K1) kinase Lantha screen assay. The assay is classed as biochemical. On the procedure: The effect of the compounds on the activity of HPK1 (MAP4K1) kinase were assessed by Lantha screen assay. • 1. 1×kinase buffer was prepared (50 mM HEPES, pH 7.5, 10 mM MgCl2, 4 mM DT • 2. Compound and assay plates preparation: • 2-1) The compound was diluted to 100× of the final desired highest inhibitor concentration in reaction by 100% DMSO. For example, if a compound was tested at […], then a solution at 500 µM in DMSO was prepared in this step. • 2-2) For each tested compound, the compound was transferred in tubes to one well on a 96-well storage plate and serially diluted by transferring […] of 100% DMSO in the next well and so forth for a total of 6 concentrations. • 2-3) 100 μl of 100% DMSO were added to two empty wells to serve as no compound control and no enzyme control in the same 96-well plate. The resulting plate was labeled as the source plate. • 2-4) 40 μl of compound from source plate were transferred to a new 384-well Echo plate as the intermediate plate. 100 nl of each well from the 384-well Echo plate were transferred to a 384-well assay plate in duplicates. For example, A1 of the 384-well Echo plate was transferred to A1 and A2 of the 384-well plate. A2 of the 384-well Echo plate was transferred to A3 and A4 of the 384-well plate, and so on; • 3. Kinase reaction: a solution of MAP4K1 in 1× kinase buffer at 2-fold the final concentration of each reagent in the assay was prepared. 5 μl of kinase solution was added to each well of the assay plate, except for control wells without enzyme (add 5 μl of 1× kinase buffer instead). The plate was then shaken, then incubated at room temperature for 10 min. A substrate solution of Fluorescein-PKC and ATP in 1× kinase reaction buffer at 2-fold of the final concentration of each reagent desired in the assay was prepared. 5 μl of substrate solution was added to each well of the assay plate to start reaction. The plate was shaken, then covered, and incubated at room temperature for 90 minutes.
Kinase detection: detection solution of 2-fold of final concentration in Antibody Dilution Buffer was prepared. 10 μl of detection solution was added to each well of the assay plate to stop the reaction. The mixtures were mixed briefly with Centrifuge and incubated at room temperature 60 minutes before reading on a plate reader for fluorescence. Data was collected on Envision with excitation at 340 nm and emission at 520 nm and 495 nm.
As a reminder, the IC50 is the concentration needed to halve the response being measured. Read a high IC50 as weaker potency. Molecule `CNc1ncc2c(n1)N1CCN=C1C(c1cc(NC(=O)c3cc(C(F)(F)F)ncn3)ccc1C)=C2` [Compound 151, N-(4-methyl-3-(2-(methylamino)-8,9-dihydroimidazo[1′,2′:1,6]pyrido[2,3-d]pyrimidin-6-yl)phenyl)-6-(trifluoromethyl)pyrimidine-4-carboxamide] showed an IC50 of 100 to 10000 nM.
Turning to `CNc1ncc2c(n1)N1CCN=C1C(c1cc(NC(=O)c3nccc(C(F)(F)F)c3Cl)ccc1C)=C2` [Compound 152, 3-chloro-N-(4-methyl-3-(2-(methylamino)-8,9-dihydroimidazo[1′,2′:1,6]pyrido[2,3-d]pyrimidin-6-yl)phenyl)-4-(trifluoromethyl)picolinamide], the IC50 fell in the range of 100 to 10000 nM.
In turn, `CNc1ncc2c(n1)N1CCN=C1C(c1cc(NC(=O)c3cc(C(F)(F)F)c[nH]c3=O)ccc1C)=C2` [Compound 153, N-(4-methyl-3-(2-(methylamino)-8,9-dihydroimidazo[1′,2′:1,6]pyrido[2,3-d]pyrimidin-6-yl)phenyl)-2-oxo-5-(trifluoromethyl)-1,2-dihydropyridine-3-carboxamide] came in with a 50% inhibitory concentration (IC50) of 100 to 10000 nM.
With `CNc1ncc2c(n1)N1CCN=C1C(c1cc(NC(=O)C3CC(C(F)(F)F)CCN3)ccc1C)=C2` (centres unmarked) [Compound 154, N-(4-methyl-3-(2-(methylamino)-8,9-dihydroimidazo[1′,2′:1,6]pyrido[2,3-d]pyrimidin-6-yl)phenyl)-4-(trifluoromethyl)piperidine-2-carboxamide], the IC50 was greater than 10000 nM.
For the molecule `CNc1ncc2c(n1)N1CCN=C1C(c1cc(NC(=O)C3CCNC(C(F)(F)F)C3)ccc1C)=C2` (centres unmarked) [Compound 155, N-(4-methyl-3-(2-(methylamino)-8,9-dihydroimidazo[1′,2′:1,6]pyrido[2,3-d]pyrimidin-6-yl)phenyl)-2-(trifluoromethyl)piperidine-4-carboxamide], the IC50 was greater than 10000 nM.
The molecule `CNc1ncc2c(n1)N1CCN=C1C(c1cc(NC(=O)c3cc(C(F)(F)F)cc(-n4cnc(C)c4)n3)ccc1C)=C2` [Compound 157, 6-(4-methyl-1H-imidazol-1-yl)-N-(4-methyl-3-(2-(methylamino)-8,9-dihydroimidazo[1′,2′:1,6]pyrido[2,3-d]pyrimidin-6-yl)phenyl)-4-(trifluoromethyl)picolinamide] showed an IC50 of 100 to 10000 nM.
With `CNc1ncc2c(n1)N1CCN=C1C(c1cc(NC(=O)c3cc(C#N)ccn3)ccc1C)=C2` [Compound 159, 4-cyano-N-(4-methyl-3-(2-(methylamino)-8,9-dihydroimidazo[1′,2′:1,6]pyrido[2,3-d]pyrimidin-6-yl)phenyl)picolinamide], the IC50 lay within 100 to 10000 nM.
As for `CNc1ncc2c(n1)N1CCN=C1C(c1cc(NC(=O)c3cncc(Cl)c3)ccc1C)=C2` [Compound 160, 5-chloro-N-(4-methyl-3-(2-(methylamino)-8,9-dihydroimidazo[1′,2′:1,6]pyrido[2,3-d]pyrimidin-6-yl)phenyl)nicotinamide], the figure is greater than 10000 nM; as for `CNc1ncc2c(n1)N1CCN=C1C(c1cc(NC(=O)c3cccc(C(C)(C)C#N)c3)ccc1C)=C2` [Compound 161, 3-(2-cyanopropan-2-yl)-N-(4-methyl-3-(2-(methylamino)-8,9-dihydroimidazo[1′,2′:1,6]pyrido[2,3-d]pyrimidin-6-yl)phenyl)benzamide], less than 100 nM; as for `CNc1ncc2c(n1)N1CCN=C1C(c1cc(NC(=O)c3ccnc(C(C)(C)C#N)c3)ccc1C)=C2` [Compound 162, 2-(2-cyanopropan-2-yl)-N-(4-methyl-3-(2-(methylamino)-8,9-dihydroimidazo[1′,2′:1,6]pyrido[2,3-d]pyrimidin-6-yl)phenyl)isonicotinamide], less than 100 nM.
`CNc1ncc2c(n1)N1CCN=C1C(c1cc(NC(=O)c3cc(C(C)(C)C#N)ccn3)c(F)cc1C)=C2` [Compound 165, 4-(2-cyanopropan-2-yl)-N-(2-fluoro-4-methyl-5-(2-(methylamino)-8,9-dihydroimidazo[1′,2′:1,6]pyrido[2,3-d]pyrimidin-6-yl)phenyl)picolinamide] came in with an IC50 of less than 100 nM.
The molecule `CNc1ncc2c(n1)N1CCN=C1C(c1cc(NC(=O)c3cccc(C(C)(C)O)c3)ccc1C)=C2` [Compound 170, 3-(2-hydroxypropan-2-yl)-N-(4-methyl-3-(2-(methylamino)-8,9-dihydroimidazo[1′,2′:1,6]pyrido[2,3-d]pyrimidin-6-yl)phenyl)benzamide] displayed an IC50 of less than 100 nM.
As for `Cc1cc(F)c(NC(=O)c2cccc(C(F)(F)F)n2)cc1C1=Cc2cnc(NC3COC3)nc2N2CCN=C12` [Compound 179, N-(2-fluoro-4-methyl-5-(2-(oxetan-3-ylamino)-8,9-dihydroimidazo[1′,2′:1,6]pyrido[2,3-d]pyrimidin-6-yl)phenyl)-6-(trifluoromethyl)picolinamide], the figure is 100 to 10000 nM.
`Cc1cc(F)c(NC(=O)c2cccc(C(C)(C)C#N)c2)cc1C1=Cc2cnc(NC3COC3)nc2N2CCN=C12` [Compound 180, 3-(2-cyanopropan-2-yl)-N-(2-fluoro-4-methyl-5-(2-(oxetan-3-ylamino)-8,9-dihydroimidazo[1′,2′:1,6]pyrido[2,3-d]pyrimidin-6-yl)phenyl)benzamide] registered an IC50 of less than 100 nM.
For `Cc1cc(F)c(NC(=O)c2cccc(C(C)(C)C#N)n2)cc1C1=Cc2cnc(NC3COC3)nc2N2CCN=C12` [Compound 182, 6-(2-cyanopropan-2-yl)-N-(2-fluoro-4-methyl-5-(2-(oxetan-3-ylamino)-8,9-dihydroimidazo[1′,2′:1,6]pyrido[2,3-d]pyrimidin-6-yl)phenyl)picolinamide], the IC50 was 100 to 10000 nM.
In turn, `CNc1ncc2c(n1)N1CCN=C1C(c1cc(NC(=O)c3cccc(C(F)(F)F)c3)ncc1C)=C2` [Compound 190, N-(5-methyl-4-(2-(methylamino)-8,9-dihydroimidazo[1′,2′:1,6]pyrido[2,3-d]pyrimidin-6-yl)pyridin-2-yl)-3-(trifluoromethyl)benzamide] came in with a 50% inhibitory concentration (IC50) of 100 to 10000 nM.
In turn, `CNc1ncc2c(n1)N1CCN=C1C(c1cc(NC(=O)c3cc(C(F)(F)F)ccn3)cnc1C)=C2` [Compound 191, N-(6-methyl-5-(2-(methylamino)-8,9-dihydroimidazo[1′,2′:1,6]pyrido[2,3-d]pyrimidin-6-yl)pyridin-3-yl)-4-(trifluoromethyl)picolinamide] displayed a half-maximal inhibitory concentration (IC50) of 100 to 10000 nM.
In turn, `CNc1ncc2c(n1)N1CCN=C1C(c1nc(NC(=O)c3cc(C(F)(F)F)ccn3)ccc1C)=C2` [Compound 192, N-(5-methyl-6-(2-(methylamino)-8,9-dihydroimidazo[1′,2′:1,6]pyrido[2,3-d]pyrimidin-6-yl)pyridin-2-yl)-4-(trifluoromethyl)picolinamide] yielded an IC50 greater than 10000 nM.
As for `CNc1ncc2c(n1)N1CCN=C1C(c1cc(NC(=O)c3cn(C(C)C)c(=O)n(-c4ccc(F)cc4)c3=O)c(F)cc1C)=C2` [Compound 194, N-(2-fluoro-4-methyl-5-(2-(methylamino)-8,9-dihydroimidazo[1′,2′:1,6]pyrido[2,3-d]pyrimidin-6-yl)phenyl)-3-(4-fluorophenyl)-1-isopropyl-2,4-dioxo-1,2,3,4-tetrahydropyrimidine-5-carboxamide], the figure is 100 to 10000 nM; as for `Cc1ccc(Nc2ncc3c(n2)N2CCN=C2C(c2cc(NC(=O)c4cccc(C(F)(F)F)c4)ccc2C)=C3)cn1` [Compound 207, N-(4-methyl-3-(2-((6-methylpyridin-3-yl)amino)-8,9-dihydroimidazo[1′,2′:1,6]pyrido[2,3-d]pyrimidin-6-yl)phenyl)-3-(trifluoromethyl)benzamide], less than 100 nM; as for `Cc1ccc(NC(=O)c2cc(C(F)(F)F)ccn2)cc1C1=Cc2cnc(Nc3cccnc3C)nc2N2CCN=C12` [Compound 209, N-(4-methyl-3-(2-((2-methylpyridin-3-yl)amino)-8,9-dihydroimidazo[1′,2′:1,6]pyrido[2,3-d]pyrimidin-6-yl)phenyl)-4-(trifluoromethyl)picolinamide], less than 100 nM.
Then `Cc1ccncc1Nc1ncc2c(n1)N1CCN=C1C(c1cc(NC(=O)c3cc(C(F)(F)F)ccn3)ccc1C)=C2` [Compound 210, N-(4-methyl-3-(2-((4-methylpyridin-3-yl)amino)-8,9-dihydroimidazo[1′,2′:1,6]pyrido[2,3-d]pyrimidin-6-yl)phenyl)-4-(trifluoromethyl)picolinamide], with less than 100 nM; and `Cc1ccc(Nc2ncc3c(n2)N2CCN=C2C(c2cc(NC(=O)c4cc(C(F)(F)F)ccn4)ccc2C)=C3)c(C)n1` [Compound 211, N-(3-(2-((2,6-dimethylpyridin-3-yl)amino)-8,9-dihydroimidazo[1′,2′:1,6]pyrido[2,3-d]pyrimidin-6-yl)-4-methylphenyl)-4-(trifluoromethyl)picolinamide], with less than 100 nM.

For the origin of these results see patent US20230303570A1, “KINASE INHIBITORS AND USES THEREOF” (ABM Therapeutics Corporation, priority 2020, published 2023).
